Measurements as given in patent US7759337B2, “Phthalazine compounds and methods of use” (Amgen Inc., priority 2005, dated 2010).

Test system: production of TNF by monocytes activated with bacterial lipopolysaccharide (LPS)
Experiment: Lipopolysaccharide-activated monocyte TNF production assay
Type: cell-based
Settings: Homo sapiens; whole blood monocyte assay (LPS induced TNF release)
Protocol: Test compounds were evaluated in vitro for the ability to inhibit the production of TNF by monocytes activated with bacterial lipopolysaccharide (LPS). Fresh residual source leukocytes (a byproduct of plateletpheresis) were obtained from a local blood bank, and peripheral blood mononuclear cells (PBMCs) were isolated by density gradient centrifugation on Ficol-Paque Plus (Pharmacia). PBMCs were suspended at 2×10^6/mL in DMEM supplemented to contain 2% FCS, 10 mM, 0.3 mg/mL […], 100 U/mL penicillin G and […] streptomycin sulfate (complete media). Cells were plated into Falcon flat bottom, 96 well culture plates (200 μL/well) and cultured overnight at 37° C. and 6% CO2. Non-adherent cells were removed by washing with 200 μl/well of fresh medium.
Test compounds were dissolved in […]. Compound stock solutions were prepared to an initial concentration of […]. Stocks were diluted initially to 20-200 μM in complete media. Nine two-fold serial dilutions of each compound were then prepared in complete medium.
One hundred microliters of each test compound dilution were added to microtiter wells containing adherent monocytes and 100 μL complete medium. Monocytes were cultured with test compounds for 60 min at which time 25 μL of complete medium containing 30 ng/mL lipopolysaccharide from E. coli K532 were added to each well. Cells were cultured an additional 4 hrs. Culture supernatants were then removed and TNF presence in the supernatants was quantified using an ELISA.
Flat bottom, 96 well Corning High Binding ELISA plates were coated overnight (4° C.) with 150 μL/well of 3 μg/mL murine anti-human TNF-α MAb (R&D Systems #MAB210). Wells were then blocked for 1 h at room temperature with 200 μL/well of CaCl2-free ELISA buffer supplemented to contain 20 mg/mL BSA (standard ELISA buffer: […], 150 mM NaCl, 2 mM CaCl2, 0.15 mM thimerosal, pH 7.4). Plates were washed and replenished with 100 μL of test supernatants (diluted 1:3) or standards. Standards consisted of eleven 1.5-fold serial dilutions from a stock of I ng/mL recombinant human TNF (R&D Systems). Plates were incubated at room temperature for 1 h on orbital shaker (300 rpm), washed and replenished with 100 μL/well of 0.5 μg/mL goat anti-human TNF-α (R&D systems #AB-210-NA) biotinylated at a 4:1 ratio. Plates were incubated for 40 min, washed and replenished with 100 μL/well of alkaline phosphatase-conjugated streptavidin (Jackson ImmunoResearch #016-050-084) at 0.02 μg/mL. Plates were incubated 30 min, washed and replenished with 200 μL/well of 1 mg/mL of p-nitrophenyl phosphate. After 30 min, plates were read at 405 nm on a Vmax plate reader.
Standard curve data were fit to a second order polynomial and unknown TNF-α concentrations determined from their OD by solving this equation for concentration. TNF concentrations were then plotted vs. test compound concentration using a second order polynomial. This equation was then used to calculate the concentration of test compounds causing a 50% reduction in TNF production.

Row | SMILES | IC50 [µM]
1 | Cc1ccc(C(N)=O)cc1-c1ccc2c(N3C[C@@H](C)NC[C@@H]3C)nncc2c1 [Example 122, 3-{1-[(2S,5R)-2,5-dimethylpiperazin-1-yl]phthalazin-6-yl}-4-methylbenzamide] | ≤ 5
2 | Cc1ccc(C(=O)NC2CC2)cc1-c1ccc2c(N3C[C@H](C)OC[C@@H]3C)nncc2c1 [Example 123, N-cyclopropyl-3-{1-[(2S,5S)-2,5-dimethylmorpholin-4-yl]phthalazin-6-yl}-4-methylbenzamide] | ≤ 5
3 | Cc1ccc(C(=O)NC2CC2)cc1-c1ccc2c(N3CCN(C(=O)Nc4ccccc4)CC3)nncc2c1 [Example 124, 4-(6-{5-[(cyclopropylamino)carbonyl]-2-methylphenyl}phthalazin-1-yl)-N-phenylpiperazine-1-carboxamide] | ≤ 5
4 | Cc1ccc(C(=O)NC2CC2)cc1-c1ccc2c(N3C[C@@H]4C[C@H]3CN4)nncc2c1 [Example 125, N-cyclopropyl-3-{1-[(1S,4S)-2,5-diazabicyclo[2.2.1]hept-2-yl]phthalazin-6-yl}-4-methylbenzamide] | ≤ 5
5 | Cc1ccc(C(=O)NC2CC2)cc1-c1ccc2c(N3C[C@@H]4C[C@H]3CN4C(=O)OC(C)(C)C)nncc2c1 [Example 126, tert-butyl (1S,4S)-5-(6-{5-[(cyclopropylamino)carbonyl]-2-methylphenyl}phthalazin-1-yl)-2,5-diazabicyclo[2.2.1]heptane-2-carboxylate] | ≤ 5
6 | Cc1ccc(C(N)=O)cc1-c1ccc2c(N3CCS(=O)(=O)CC3)nncc2c1 [Example 127, 3-[1-(1,1-dioxidothiomorpholin-4-yl)phthalazin-6-yl]-4-methylbenzamide] | ≤ 5
7 | Cc1ccc(C(N)=O)cc1-c1ccc2c(N3CCSCC3)nncc2c1 [Example 128, 4-methyl-3-(1-thiomorpholin-4-ylphthalazin-6-yl)benzamide] | ≤ 5
8 | CCNC(=O)N1CCN(c2nncc3cc(-c4cc(C(=O)NC5CC5)ccc4C)ccc23)CC1 [Example 129, 4-(6-{5-[(cyclopropylamino)carbonyl]-2-methylphenyl}phthalazin-1-yl)-N-ethylpiperazine-1-carboxamide] | ≤ 5
9 | CC[C@@H]1CCCCN1c1nncc2cc(-c3cc(C(=O)NC4CC4)ccc3C)ccc12 [Example 130, N-cyclopropyl-3-{1-[(2R)-2-ethylpiperidin-1-yl]phthalazin-6-yl}-4-methylbenzamide] | ≤ 5
10 | Cc1ccc(-c2nncc3cc(-c4cc(C(=O)NC5CC5)ccc4C)ccc23)cc1 [Example 131, N-cyclopropyl-4-methyl-3-[1-(4-methylphenyl)phthalazin-6-yl]benzamide] | ≤ 5
11 | Cc1ccc(C(=O)NC2CC2)cc1-c1ccc2c(N3CCC[C@@H](C(N)=O)C3)nncc2c1 [Example 132, (3R)-1-(6-{5-[(cyclopropylamino)carbonyl]-2-methylphenyl}phthalazin-1-yl)piperidine-3-carboxamide] | ≤ 5
12 | Cc1ccc(C(=O)NC2CC2)cc1-c1ccc2c(N3CCS(=O)(=O)CC3)nncc2c1 [Example 133, N-cyclopropyl-3-[1-(1,1-dioxidothiomorpholin-4-yl)phthalazin-6-yl]-4-methylbenzamide] | ≤ 5
13 | Cc1ccc(C(=O)NC2CC2)cc1-c1ccc2c(N3CCSCC3)nncc2c1 [Example 134, N-cyclopropyl-4-methyl-3-(1-thiomorpholin-4-ylphthalazin-6-yl)benzamide] | ≤ 5
14 | Cc1cc(F)c(C(=O)NC2CC2)cc1-c1ccc2c(N3C[C@@H](C)OC[C@H]3C)nncc2c1 [Example 135, N-cyclopropyl-5-{1-[(2R,5R)-2,5-dimethylmorpholin-4-yl]phthalazin-6-yl}-2-fluoro-4-methylbenzamide] | ≤ 5
15 | Cc1ccc(C(=O)NC2CC2)cc1-c1ccc2c(N3CC[C@H]4CCCC[C@H]4C3)nncc2c1 [Example 136, 3-{1-[(4aR,8aR)-octahydroisoquinolin-2(1H)-yl]phthalazin-6-yl}-N-cyclopropyl-4-methylbenzamide] | ≤ 5
16 | Cc1ccc([N+](=O)[O-])cc1-c1ccc2c(N3CCOCC3)nncc2c1 [Example 137, 6-(2-methyl-5-nitrophenyl)-1-morpholin-4-ylphthalazine] | ≤ 5

Row | SMILES | IC50 [µM]
17 | CCOC(=O)c1ccc(C)c(-c2ccc3c(NC(C)C)nncc3c2)c1 [Example 138, ethyl 3-[1-(isopropylamino)phthalazin-6-yl]-4-methylbenzoate] | ≤ 5
18 | Cc1ccc(C(=O)NC2CC2)cc1-c1ccc2c(N3CCN(C(=O)NCc4ccc(F)cc4)CC3)nncc2c1 [Example 139, 4-(6-{5-[(cyclopropylamino)carbonyl]-2-methylphenyl}phthalazin-1-yl)-N-(4-fluorobenzyl)piperazine-1-carboxamide] | ≤ 5
19 | Cc1ccc(C(=O)NC2CC2)cc1-c1ccc2c(N3CCN[C@H](C)C3)nncc2c1 [Example 140, N-cyclopropyl-4-methyl-3-{1-[(3R)-3-methylpiperazin-1-yl]phthalazin-6-yl}benzamide] | ≤ 5
20 | Cc1ccc(C(=O)NC2CC2)cc1-c1ccc2c(N)nncc2c1 [Example 141, 3-(1-aminophthalazin-6-yl)-N-cyclopropyl-4-methylbenzamide] | ≤ 5
21 | Cc1ccc(C(=O)NC2CC2)cc1-c1ccc2c(N3C[C@@H](C)O[C@@H](C)C3)nncc2c1 [Example 142, N-cyclopropyl-3-{1-[(2R,6S)-2,6-dimethylmorpholin-4-yl]phthalazin-6-yl}-4-methylbenzamide] | ≤ 5
22 | Cc1ccc(C(N)=O)cc1-c1ccc2c(N3CCNC[C@H]3C)nncc2c1 [Example 143, 4-methyl-3-{1-[(2R)-2-methylpiperazin-1-yl]phthalazin-6-yl}benzamide] | ≤ 5
23 | Cc1ccc(C(=O)NC2CC2)cc1-c1ccc2c(N3C[C@@H]4C[C@H]3CN4C(C)C)nncc2c1 [Example 144, N-cyclopropyl-3-{1-[(1S,4S)-5-isopropyl-2,5-diazabicyclo[2.2.1]hept-2-yl]phthalazin-6-yl}-4-methylbenzamide] | ≤ 5
24 | Cc1ccc(C(N)=O)cc1-c1ccc2c(Cl)nncc2c1 [Example 145, 3-(1-chlorophthalazin-6-yl)-4-methylbenzamide] | ≤ 5
25 | Cc1ccc(C(N)=O)cc1-c1ccc2c(N3CCNC[C@@H]3C)nncc2c1 [Example 146, 4-methyl-3-{1-[(2S)-2-methylpiperazin-1-yl]phthalazin-6-yl}benzamide] | ≤ 5
26 | Cc1ccc(C(=O)NC2CC2)cc1-c1ccc2c(N3C[C@@H](C)NC[C@@H]3C)nncc2c1 [Example 147, N-cyclopropyl-3-{1-[(2S,5R)-2,5-dimethylpiperazin-1-yl]phthalazin-6-yl}-4-methylbenzamide] | ≤ 5
27 | Cc1ccc(C(=O)NC2CC2)cc1-c1ccc2c(N3C[C@@H](C)N[C@@H](C)C3)nncc2c1 [Example 148, N-cyclopropyl-3-{1-[(3R,5S)-3,5-dimethylpiperazin-1-yl]phthalazin-6-yl}-4-methylbenzamide] | ≤ 5
28 | Cc1ccc(C(=O)NC2CC2)cc1-c1ccc2c(N3CCN[C@@H](C)C3)nncc2c1 [Example 149, N-cyclopropyl-4-methyl-3-{1-[(3S)-3-methylpiperazin-1-yl]phthalazin-6-yl}benzamide] | ≤ 5
29 | Cc1ccc(C(=O)NC2CC2)cc1-c1ccc2c(C3CCN(C)CC3)nncc2c1 [Example 150, N-cyclopropyl-4-methyl-3-[1-(1-methylpiperidin-4-yl)phthalazin-6-yl]benzamide] | ≤ 5
30 | Cc1ccc(C(=O)NC2CC2)cc1-c1ccc2c(N3CCC[C@H]3CO)nncc2c1 [Example 151, N-cyclopropyl-3-{1-[(2S)-2-(hydroxymethyl)pyrrolidin-1-yl]phthalazin-6-yl}-4-methylbenzamide] | ≤ 5
31 | Cc1ccc(C(=O)NC2CC2)cc1-c1ccc2c(N3CCC(C)(O)CC3)nncc2c1 [Example 152, N-cyclopropyl-3-[1-(4-hydroxy-4-methylpiperidin-1-yl)phthalazin-6-yl]-4-methylbenzamide] | ≤ 5
32 | Cc1ccc(C(=O)NC2CC2)cc1-c1ccc2c(C3=CCN(C(=O)OC(C)(C)C)CC3)nncc2c1 [Example 153, tert-butyl 4-(6-{5-[(cyclopropylamino)carbonyl]-2-methylphenyl}phthalazin-1-yl)-3,6-dihydropyridine-1(2H)-carboxylate] | ≤ 5
